Measured values as given in patent US8263562B2, “Peptides for preventing or treating liver damage” (priority 2006, dated 2012).
Read-outs that look alike come from different tables or passages of the source.

Experiments:
[1] = test system: BCG vaccine and lipopolysaccharide-induced immunological liver damage; assay type: in vivo, Wistar Rats; settings: for pathological condition of liver (score) versus model group: P<0.05
[2] = test system: D-aminogalactose-induced acute liver damage; experiment: D-aminogalactose-induced acute liver damage of rats; assay type: in vivo, Wistar Rats
Description: Wistar Rats (body weight of each was 180 g˜220 g; half of them were male and the others were female; and they were purchased from Shanghai Slac Laboratory Animal, Inc.) were divided randomly into 6 groups as follows with 10 rats in each group: (1) the diammonium glycyrrhizinate injection group, injected with diammonium glycyrrhizinate; (2) the high dose group, immunized with Peptide A and adjuvant; (3) the medium dose group, immunized with Peptide A and adjuvant; (4) the low dose group, immunized with Peptide A and adjuvant; (5) the blank control group; and (6) the model group.
Rats in the high dose group, the medium dose group and the low dose group were immunized as follows: At Day 0, the first immunization was performed by the following process: 100 μl of Peptide A dissolved in physiological saline was mixed thoroughly with the equivalent volume of Freund's complete adjuvant, and then 0.2 ml of the resultant water-in-oil emulsion was administered via subcutaneous injection to each rat, wherein the dosage of Peptide A contained in the emulsion was 174 μg/kg rat body weight for the high dose group, 87 μg/kg rat body weight for the medium dose group, and 43.5 μg/kg rat body weight for the low dose group respectively. 14 days later, the second immunization was performed in the same dosage and manner as the first immunization except that, Freund's complete adjuvant was replaced by Freund's incomplete adjuvant. […]
At the 48th hour after intraperitoneally injecting D-aminogalactose, each rat was sacrificed by cervical dislocation, and blood was collected. After sera were isolated, according to the specification of the manufacturer, the activities of glutamic-pyruvic transaminase (SGPT) and glutamic-oxalacetic transaminase (SGOT) in sera were detected respectively by using Glutamic-pyruvic Transaminase Detection Kit (purchased from Nanjing Jiancheng Bioengineering Institute) and Glutamic-oxalacetic Transaminase Detection Kit (purchased from Nanjing Jiancheng Bioengineering Institute).

[3] = test system: Sera of Patients with HCV (anti-HCV antibody-positive sera); experiment: Indirect ELISA, reactivity of the peptides to anti-HCV antibody-positive sera; assay type: binding, human; settings: for reactivity to sera of patients with HCV compared to sera of patients with HBV and healthy donors: X^2-test; for Percentage of Positive Cases (%) / The Number of Positive Cases: anti-HCV antibody-positive sera of 30 patients, sera dilution 1:100, 10 μg peptide coated
Description: Anti-HCV antibody-positive sera: randomly obtained from inpatients infected with HCV in the Liberation Army 302 Hospital from 2000 to 2001.
(§1) The reactivity of the individual peptide of the invention to sera was detected by standard indirect ELISA technology using Model DG3022 Enzyme-Linked Immunoassay Analyzer (purchased from Perkin Elmer Corporation). 10 μg of Peptide A, Peptide B, Peptide C, and Peptide Conjugate A were added respectively into the basic coating buffer (0.1 mol/L NaHCO3, 35 μl; 0.1 mol/L Na2CO3, 15 μl; H2O, 50 μl), and then transferred into the wells of polypropylene/ethylene microtiter plate, and placed at 4° C. overnight. After adding 120 μl of FCS-PBS, each well was blocked at 37° C. for 2 hours. Sera (dilution of 1:100) were then added to the wells, and incubated at 37° C. for 1 hour. Goat anti-human IgGs (dilution of 1:1000) (purchased from Sino-American Biotechnology Company, Beijing) were then added to the wells, and incubated at 37° C. for 1 hour. 50 μl of Solution A and Solution B (purchased from Beijing Kewei Reagent Company) were added to every well, placed in the dark for 5 min, and then the absorbance at 450 nm was measured.

[4] = test system: sera of patients with HBV; experiment: Indirect ELISA, reactivity of the peptides to sera of patients with Hepatitis B; assay type: binding, human; settings: sera of 10 patients with HBV
Description: Sera of patients with Hepatitis B (HBV): obtained from inpatients with Hepatitis B in the Liberation Army 302 Hospital, who was positive for the surface antigen of Hepatitis B virus as assayed.
as §1

sera of healthy donors = experiment: Indirect ELISA, reactivity of the peptides to control sera of healthy donors; assay type: binding, human; settings: sera of 10 healthy donors
Description: Control sera: obtained from healthy blood donors, who had normal blood indexes in each assay.
as §1

IL-4 = experiment: Level of IL-4 in sera of immunized mice by ELISA; assay type: in vivo, BALB/c Mice; settings: first day after the fourth immunization
Description: (§2) BALB/c Mice, all of which are male, 6 week old, and purchased from the Laboratory Animal Center of Academy Of Military Medical Sciences, Beijing, were divided into 4 groups as follows with 5 mice in each group: (1) the control group; (2) the Peptide A group, immunized with Peptide A; (3) the Peptide B group, immunized with Peptide B; and (4) the Peptide C group, immunized with Peptide C.
(§3) 50 μl of the peptide (100 μg/μl) used in the corresponding group and 50 μl of Freund's complete adjuvant (GIBCOBRL Corp.) were mixed thoroughly with a microstirrer, and the mixture was injected into the claw pad of a mouse, thereby the first immunization was performed for each of the mice. 14 days later, booster immunization was performed in the same manner as the first immunization with 50 μl of the peptide (100 μg/μl) used in the corresponding group and 50 μl of Freund's complete adjuvant (GIBCOBRL Corp.). 14 days later, another booster immunization was performed in the same manner. 14 days later, boost immunization was performed by injecting 100 μg of the peptide dissolved in 200 μl PBS into the mouse intramuscularly. During the process of immunization, only the corresponding adjuvant and PBS were injected for the control group. At the first day after the fourth immunization, mice were sacrificed and sera were collected.
(§4) According to the specification of the manufacturer, the levels of cytokines (i.e., IL-4, IL-10, and γ-IFN) in sera of the above immunized mice were detected respectively by using IL-4 Quantikine ELASA Kit, IL-10 Quantikine ELASA Kit, and γ-IFN Quantikine ELASA Kit (all of which are purchased from R&D, Inc.).

IL-10 = experiment: Level of IL-10 in sera of immunized mice by ELISA; assay type: in vivo, BALB/c Mice; settings: first day after the fourth immunization
Description: as §2, §3, §4

γ-IFN [5] = experiment: Level of γ-IFN in sera of immunized mice by ELISA; assay type: in vivo, BALB/c Mice; settings: first day after the fourth immunization
Description: as §2, §3, §4

γ-IFN [6] = experiment: Effects of the peptide on γ-IFN of rats in vivo; set-up: species or system SD Rats; settings: four immunizations
Description: SD Rats (body weight of each was 180 g˜220 g; half of them were male and the others were female; and they were purchased from the Animal Institute of Academy Of Military Medical Sciences) were divided randomly into 5 groups as follows with 10 rats in each group: (1) the blank control group; (2) the adjuvant control group; (3) the high dose group, immunized with Peptide A and adjuvant; (4) the low dose group, immunized with Peptide A and adjuvant; and (5) the peptide group, immunized with Peptide A only.
Rats in the high dose group and the low dose group were immunized as follows: At Day 0, the first immunization was performed by the following process: Peptide A dissolved in physiological saline was mixed thoroughly with the equivalent volume of Freund's complete adjuvant, and then 0.1 ml of the resultant water-in-oil emulsion was administered via subcutaneous injection to each rat, wherein the dosage of Peptide A contained in the emulsion was 50 μg/kg rat body weight for the high dose group and 25 μg/kg rat body weight for the low dose group respectively. […]
At the first day after the fourth immunization, rats from every group were sacrificed and splenocytes were collected. […] According to the specification of the manufacturer, the level of γ-IFN in sera of the above immunized rats was detected by using γ-IFN ELASA Quantikine ELASA Kit (purchased from R&D, Inc.).

[7] = test system: tetrachloromethane-induced liver damage; experiment: Tetrachloromethane-induced liver damage of mice; assay type: in vivo, BALB/c mice
Description: At the first before the first immunization, 0.05 ml CCl4 (available from Shanghai Linfen Chemical Reagent Co., Ltd.) was administered via subcutaneous injection to each mouse of all groups other than the blank control group; and the equivalent volume of physiological saline was injected for the blank control group.
Mice in the high dose group, the medium dose group and the low dose group were immunized as follows: the first immunization was performed by the following process: 1000 of Peptide A dissolved in physiological saline was mixed thoroughly with the equivalent volume of Freund's complete adjuvant, and then 0.2 ml of the resultant water-in-oil emulsion was administered via subcutaneous injection to each mouse, wherein the dosage of Peptide A contained in the emulsion was 250 μg/kg mouse body weight for the high dose group, 125 μg/kg mouse body weight for the medium dose group, and 62.5 μg/kg mouse body weight for the low dose group respectively. 14 days later, the second immunization was performed in the same dosage and manner as the first immunization except that, Freund's complete adjuvant was replaced by Freund's incomplete adjuvant. 14 days later, the third immunization was performed in the same dosage and manner as the first immunization except that, Freund's complete adjuvant was replaced by Freund's incomplete adjuvant. 14 days later, the fourth immunization was performed by the following process: 0.1 ml of Peptide A dissolved in physiological saline was administered without any adjuvants via intraperitoneal injection to each rat, wherein the dosage of Peptide A was 250 μg/kg mouse body weight for the high dose group, 125 μg/kg mouse body weight for the medium dose group, and 62.5 μg/kg mouse body weight for the low dose group respectively.
At the days of immunization for the high dose group, the medium dose group and the low dose group, starting at Day 0, the corresponding physiological saline was injected into each rat of the model group and the blank control group, for up to four times; meanwhile, the corresponding adjuvant and physiological saline were injected for the adjuvant control group, for up to four times.
At the first day before the fourth immunization, 0.05 ml CCl4 was administered via subcutaneous injection to each mouse of all groups other than the blank control group; and the equivalent volume of physiological saline was injected for the blank control group. At the second day after the fourth immunization, all of mice were sacrificed.
Just before sacrificing all mice, each rat was weighed, and then sacrificed by cervical dislocation. Then Blood was collected, before sera were isolated.

[8] = 13.5 mg/kg intraperitoneal, every day for 7 days
[9] = high, medium, low dosage (174, 87, 43.5 μg/kg) without adjuvants, subcutaneous, four immunizations, 12 h after LPS
[10] = high, medium, low dosage (174, 87, 43.5 μg/kg) with adjuvant, four immunizations, 48 h after D-aminogalactose 600 mg/kg
[11] = high, medium, low dosage (250, 125, 62.5 μg/kg) with adjuvant, four immunizations, CCl4 subcutaneous

Compound: CC1(C)[C@@H](O[C@H]2O[C@H](C(=O)O)[C@@H](O)[C@H](O)[C@H]2O[C@@H]2O[C@H](C(=O)O)[C@@H](O)[C@H](O)[C@H]2O)CC[C@]2(C)[C@H]3C(=O)C=C4[C@@H]5C[C@@](C)(C(=O)O)CC[C@]5(C)CC[C@@]4(C)[C@]3(C)CC[C@@H]12.N.N [diammonium glycyrrhizinate injection, diammonium glycyrrhizinate, reference compound]
- protective effect on liver damage of rats (SGPT, SGOT) [1, 8]: no significant protective effect
- protective effect on liver damage of rats (pathological condition score) [1, 8]: no significant protective effect
- protective effect on acute liver damage of rats (SGPT, SGOT) [2, 8]: significant protective effect

Compound: GQTYTSG [Peptide A]
- reactivity to sera of patients with HCV compared to sera of patients with HBV and healthy donors [3]: significantly react
- Percentage of Positive Cases (%) [3]: 43%
- The Number of Positive Cases [3]: 13
- reactivity in ELISA Assay to sera of patients with HBV [4]: negative
- reactivity in ELISA Assay to sera of healthy donors (sera of healthy donors): negative
- IL-4(pg/ml serum) (IL-4): 29.64 ± 4.9 pg/ml serum
- IL-10(pg/ml serum) (IL-10): 27.94 ± 6.4 pg/ml serum
- γ-IFN(pg/ml serum) (γ-IFN [5]): 23.46 ± 5.9 pg/ml serum
- level of γ-IFN, Peptide A only with no adjuvant, versus same dosage of Peptide A and adjuvant (γ-IFN [6]; 50 μg/kg subcutaneous): even higher
- γ-IFN in sera of the immunized rats compared to both of the control groups (γ-IFN [6]; Peptide A 50 or 25 μg/kg with adjuvant, or 50 μg/kg without adjuvant, FIG. 2): significant increase
- pathological condition of liver (score) versus model group ([1]; high and medium dosage (174, 87 μg/kg) without any adjuvants): significant alleviation
- level of glutamic-oxalacetic transaminase (SGOT) in sera versus model group [1, 9]: significant decrease
- level of glutamic-pyruvic transaminase (SGPT) in sera versus model group [1, 9]: significant decrease
- pathological condition of liver (score) versus model group ([1]; low dosage (43.5 μg/kg) with adjuvant): significant alleviation
- protective effect on acute immunological liver damage (SGPT, SGOT) ([1]; low dose & adjuvant group, 43.5 μg/kg): protective effect
- level of glutamic-oxalacetic transaminase (SGOT) in sera versus model group [2, 10]: significant decrease
- level of glutamic-pyruvic transaminase (SGPT) in sera versus model group [2, 10]: significant decrease
- tetrachloromethane-induced hepatomegaly of mice ([7]; 250 μg/kg mouse body weight): significant reduction
- pathological conditions of the liver tissues (score) versus model group ([7]; high dose group, 250 μg/kg with adjuvant): alleviated significantly
- level of glutamic-oxalacetic transaminase (SGOT) in sera versus model group [7, 11]: significant decrease
- level of glutamic-pyruvic transaminase (SGPT) in sera versus model group [7, 11]: significant decrease

Compound: GQTYTSGG [Peptide C]
- reactivity to sera of patients with HCV compared to sera of patients with HBV and healthy donors [3]: significantly react
- Percentage of Positive Cases (%) [3]: 47%
- The Number of Positive Cases [3]: 14
- reactivity in ELISA Assay to sera of patients with HBV [4]: negative
- reactivity in ELISA Assay to sera of healthy donors (sera of healthy donors): negative
- IL-4(pg/ml serum) (IL-4): 31.22 ± 5.0 pg/ml serum
- IL-10(pg/ml serum) (IL-10): 26.926 ± 5.8 pg/ml serum
- γ-IFN(pg/ml serum) (γ-IFN [5]): 24.81 ± 5.8 pg/ml serum

Compound: GQTYTSGA [Peptide B]
- reactivity to sera of patients with HCV compared to sera of patients with HBV and healthy donors [3]: significantly react
- Percentage of Positive Cases (%) [3]: 50%
- The Number of Positive Cases [3]: 15
- reactivity in ELISA Assay to sera of patients with HBV [4]: negative
- reactivity in ELISA Assay to sera of healthy donors (sera of healthy donors): negative
- IL-4(pg/ml serum) (IL-4): 30.64 ± 4.9 pg/ml serum
- IL-10(pg/ml serum) (IL-10): 27.94 ± 6.4 pg/ml serum
- γ-IFN(pg/ml serum) (γ-IFN [5]): 28.46 ± 5.9 pg/ml serum
